These results are taken from article PMC6830257, “Optimisation of novel 4, 8-disubstituted dihydropyrimido[5,4-b][1,4]oxazine derivatives as potent GPR 119 agonists” (Journal of Enzyme Inhibition and Medicinal Chemistry, 2019).

Like-named read-outs stand apart in the source and are kept apart here.

For one assay, the system named is mice. Also on record: method as in PMID 30100020, PMID 30685641. The conditions noted are these: compared with positive control ref 31, 32; cited from earlier work.
For the next assay, the system named is GPR119. Also on record: method as in PMID 30100020, PMID 30685641. The settings on record: earlier work of the authors ref 31, 32; read-out: EC50 (GPR119 agonistic potency); cited from earlier work.
In a further assay the test system is C57BL/6N mice. The assay is described as follows: oral glucose tolerance test (oGTT), single dose, in C57BL/6N mice. The conditions noted are these: for blood glucose AUC0–120 min: mean ± SE, n = 8, vehicle 24.69 ± 3.08; for reduction of blood glucose AUC0–120 min: oGTT 3 g/kg glucose 4 h after dose, vs vehicle, C57BL/6N mice; for blood glucose reduction effect: single dose 15 and 30 mg/kg, oGTT in C57BL/6N mice. Type of assay: in vivo. On the procedure: Figure 2. Single dose of compounds 10 and 15 on oGTT in C57BL/6N mice.
AUC0–2h(mmol/L) = (BG0+BG15)×0.25/2 + (BG15+BG30)×0.25/2 + (BG30+BG60)×0.5/2 + (BG60+BG90)×0.5/2 + (BG90+BG120)×0.5/2.

The next assay addresses T1, human GPR119 (Homo sapiens, UniProt Q8TDV5).
T1 construct: expressed in transfected cells; host or cells: CHO K1
T1 sequence (Q8TDV5 1-335): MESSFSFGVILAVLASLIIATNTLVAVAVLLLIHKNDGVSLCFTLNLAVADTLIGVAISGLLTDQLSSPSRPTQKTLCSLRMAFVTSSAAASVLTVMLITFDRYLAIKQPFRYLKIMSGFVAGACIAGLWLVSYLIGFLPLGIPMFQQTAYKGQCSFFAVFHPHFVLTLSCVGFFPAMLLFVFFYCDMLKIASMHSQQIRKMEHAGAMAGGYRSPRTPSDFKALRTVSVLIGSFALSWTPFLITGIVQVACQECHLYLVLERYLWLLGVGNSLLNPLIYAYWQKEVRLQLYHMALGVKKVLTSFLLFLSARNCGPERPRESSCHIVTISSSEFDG
Kind of assay: hGPR119 agonistic activity, LANCE Ultra cAMP accumulation assay in CHO K1 cells stably expressing human GPR119. In kind it is cell-based. The settings on record: for Emax: CHO-K1, 1 h, read-out: GPR119 activation %max (inherent activity). On the procedure:
CHO K1 cells stably transfected with human GPR119 were grown at 37 °C, […] and 5% CO2 in 75 cm flasks containing DMEM/F12 (1:1) media with added 10% FBS (Gibco®), Geneticin (Gibco®) and grown until 90% confluent. Cells were then washed (PBS), lifted with cell dissociation solution (Invtrogen®), counted and used for cAMP accumulation assays and/or passaging (1:10). Following the manufacturer’s instructions for the LANCE® Ultra cAMP assay (Perkin Elmer), cell transfected with hGPR119 were centrifuged (1000 rpm, 5 min), re-suspended in cAMP assay buffer (HBSS, 0.1% BSA, 0.5 mM IBMX and 5 mM HEPES) and seeded at 5000 cells/well in optiplate-384 (Perkin Elmer). […] Cell lysis buffers (4X Eu-cAMP tracer solution and 4X ULight™-anti-cAMP solution) were added to each well, and the plates were incubated at r. t. for 1 h before being read on Envision (Perkin Elmer). The assay was performed for three replicates for each concentration.
A general note: TR-FRET usually uses a lanthanide donor and a delayed reading to cut background.

[1] abbreviates: cAMP stimulation % compared to maximal effect of GSK1292263.
The mark [2] stands for this setting: human GPR119 in CHO K1 cells, cAMP, 1 h incubation, read-out: GPR119 activation EC50.

A word on the EC50: it is the concentration at which the effect is half-maximal. `CC(C)(C)OC(=O)N1[C@@H]2CC[C@H]1C[C@@H](Nc1ncnc3c(Nc4ccc(S(C)(=O)=O)cc4F)ncnc13)C2` [Compound 1]: in the assay with mice, the “glucose-lowering effect in oGTT” value was “did not show the significant glucose-lowering effect”. In addition, the EC50 with GPR119 was 2.2 nM.
Turning to `CC(C)(C)OC(=O)N1[C@@H]2CC[C@H]1C[C@@H](Nc1ncnc3c(Nc4ccc(C#N)cc4F)ncnc13)C2` [Compound 2], the “glucose-lowering effect in oGTT” value in the assay with mice is recorded as “did not show the significant glucose-lowering effect”. Also, the EC50 in the assay on GPR119 was 8.1 nM.
With `CC(C)(C)OC(=O)N1C2CCC1CC(Nc1ncnc3c1OCCN3c1ccc(C#N)cc1F)C2` (stereo not drawn) [Compound 10, tert-Butyl (endo)-3-((8-(4-cyano-2-fluorophenyl)-7,8-dihydro-6H-pyrimido[5,4-b][1,4]oxazin-4-yl)amino)-8-azabicyclo[3.2.1]octane-8-carboxylate], in the assay on C57BL/6N mice (15 mg/kg single dose), the blood glucose AUC0–120 min turned out to be 22.1 ± 4.28 mmol·h/L and the “reduction of blood glucose AUC0–120 min” value was 10.7%. Further, in the assay with C57BL/6N mice (30 mg/kg single dose), the blood glucose AUC0–120 min came out at 20.1 ± 2.27 mmol·h/L and the “reduction of blood glucose AUC0–120 min” value is 18.8%. For the same compound, the “blood glucose reduction effect” value with C57BL/6N mice was “dose-dependent manner”. For the same compound, on human GPR119, the EC50 amounted to 13 nM and the Emax stood at 83.9%.
For `CC(C)(C)OC(=O)N1C2CCC1CC(CNc1ncnc3c1OCCN3c1ccc(C#N)cc1F)C2` (stereo not drawn) [Compound 11, tert-Butyl (exo)-3-(((8-(4-cyano-2-fluorophenyl)-7,8-dihydro-6H-pyrimido[5,4-b][1,4]oxazin-4-yl)amino)methyl)-8-azabicyclo[3.2.1]octane-8-carboxylate], the Emax at human GPR119 (setting [1]) stood at 45.9%. Besides, at human GPR119 (setting [2]), the EC50 worked out at 1800 nM.
Taken in the same sequence, the figures for `CC(C)(C)OC(=O)N1CCC(Nc2ncnc3c2OCCN3c2ccc(C#N)cc2F)CC1` [Compound 12, tert-Butyl 4-((8-(4-cyano-2-fluorophenyl)-7,8-dihydro-6H-pyrimido[5,4-b][1,4]oxazin-4-yl)amino)piperidine-1-carboxylate] were 63.5% and 200 nM.
Regarding `CC(C)(C)OC(=O)N1C2CCCC1CC(Nc1ncnc3c1OCCN3c1ccc(C#N)cc1F)C2` (centres unmarked) [Compound 13, tert-Butyl 3-((8-(4-cyano-2-fluorophenyl)-7,8-dihydro-6H-pyrimido[5,4-b][1,4]oxazin-4-yl)amino)-9-azabicyclo[3.3.1]nonane-9-carboxylate], the Emax on human GPR119 (setting [1]) came to 22.7%. Besides, the EC50 at human GPR119 (setting [2]) was over 10000 nM.
As to `CC(C)OC(=O)N1[C@@H]2CC[C@H]1C[C@@H](Nc1ncnc3c1OCCN3c1ccc(C#N)cc1F)C2` [Compound 15, Isopropyl (endo)-3-((8-(4-cyano-2-fluorophenyl)-7,8-dihydro-6H-pyrimido[5,4-b][1,4]oxazin-4-yl)amino)-8-azabicyclo[3.2.1]octane-8-carboxylate], the blood glucose AUC0–120 min in the assay with C57BL/6N mice (15 mg/kg single dose) turned out to be 21.1 ± 3.92 mmol·h/L; in the assay with C57BL/6N mice (30 mg/kg single dose), 18.9 ± 2.58 mmol·h/L. Also, the “reduction of blood glucose AUC0–120 min” value is given as 14.5% with C57BL/6N mice (15 mg/kg single dose) and 23.4% in the assay on C57BL/6N mice (30 mg/kg single dose). Moreover, in the assay with C57BL/6N mice, the “blood glucose reduction effect” value is recorded as “dose-dependent manner”. The “GPR119 activation %max (inherent activity)” value (from here on “GPR119 activation %max”) at human GPR119 (setting [1]) worked out at 146.3%. For the same compound, on human GPR119 (carbamate substituted derivatives, 15 vs. 22), the “EC50 ratio compound 15 vs. compound 22” value worked out at 10 times. For the same compound, the EC50 at human GPR119 (setting [2]) is 12 nM.
On to `CCc1cnc(N2[C@@H]3CC[C@H]2C[C@@H](Nc2ncnc4c2OCCN4c2ccc(C#N)cc2F)C3)nc1` [Compound 16, 4-(4-(((endo)-8-(5-Ethylpyrimidin-2-yl)-8-azabicyclo[3.2.1]octan-3-yl)amino)-6,7-dihydro-8H-pyrimido[5,4-b][1,4]oxazin-8-yl)-3-fluorobenzonitrile], for which, at human GPR119 (setting [1]), the “GPR119 activation %max” value came to 60.5%. The concentration giving a half-maximal response (EC50) on human GPR119 (setting [2]) was 130 nM.
Taken in the same sequence, the figures for `N#Cc1ccc(N2CCOc3c(N[C@H]4C[C@H]5CC[C@@H](C4)N5c4ncc(Cl)cn4)ncnc32)c(F)c1` [Compound 17, 4-(4-(((endo)-8-(5-Chloropyrimidin-2-yl)-8-azabicyclo[3.2.1]octan-3-yl)amino)-6,7-dihydro-8H-pyrimido[5,4-b][1,4]oxazin-8-yl)-3-fluorobenzonitrile] were 71.2% and 250 nM.
Take `N#Cc1ccc(N2CCOc3c(NC4CC5CCC(C4)N5CC(=O)N4CCn5c(nnc5C(F)(F)F)C4)ncnc32)c(F)c1` (stereo not drawn) [Compound 18, 3-Fluoro-4-(4-(((endo)-8-(2-oxo-2-(3-(trifluoromethyl)-5,6-dihydro-[1,2,4]triazolo[4,3-a]pyrazin-7(8H)-yl)ethyl)-8-azabicyclo[3.2.1]octan-3-yl)amino)-6,7-dihydro-8H-pyrimido[5,4-b][1,4]oxazin-8-yl)benzonitrile]: on human GPR119 (setting [1]), the “GPR119 activation %max” value came to 100%. Moreover, at human GPR119 (setting [2]), the EC50 was 110 nM.
Taken in the same sequence, the figures for `CC(C)(C)OC(=O)N[C@@H]1CCCN(C(=O)CN2[C@@H]3CC[C@H]2C[C@@H](Nc2ncnc4c2OCCN4c2ccc(C#N)cc2F)C3)C1` [Compound 19, tert-Butyl ((R)-1-(2-((endo)-3-((8-(4-cyano-2-fluorophenyl)-7,8-dihydro-6H-pyrimido[5,4-b][1,4]oxazin-4-yl)amino)-8-azabicyclo[3.2.1]octan-8-yl)acetyl)piperidin-3-yl)carbamate] were 75.6% and 68 nM.
Turning to `CC(C)(C)OC(=O)N1CCN(C(=O)CN2[C@@H]3CC[C@H]2C[C@@H](Nc2ncnc4c2OCCN4c2ccc(C#N)cc2F)C3)CC1` [Compound 20, tert-Butyl 4-(2-((endo)-3-((8-(4-cyano-2-fluorophenyl)-7,8-dihydro-6H-pyrimido[5,4-b][1,4]oxazin-4-yl)amino)-8-azabicyclo[3.2.1]octan-8-yl)acetyl)piperazine-1-carboxylate], on human GPR119 (setting [1]), the “GPR119 activation %max” value worked out at 79.6%. Moreover, the EC50 at human GPR119 (setting [2]) came to 82 nM.
Regarding `CC(C)OC(=O)N1CCC(Nc2ncnc3c2OCCN3c2ccc(C#N)cc2F)CC1` [Compound 22, Isopropyl 4-((8-(4-cyano-2-fluorophenyl)-7,8-dihydro-6H-pyrimido[5,4-b][1,4]oxazin-4-yl)amino)piperidine-1-carboxylate], the Emax on human GPR119 (setting [1]) was determined as 66.1%. Moreover, the EC50 at human GPR119 (setting [2]) came out at 120 nM.
Regarding `CCc1cnc(N2CCC(Nc3ncnc4c3OCCN4c3ccc(C#N)cc3F)CC2)nc1` [Compound 23, 4-(4-((1-(5-Ethylpyrimidin-2-yl)piperidin-4-yl)amino)-6,7-dihydro-8H-pyrimido[5,4-b][1,4]oxazin-8-yl)-3-fluorobenzonitrile], the Emax at human GPR119 (setting [1]) stood at 70.7%. The EC50 at human GPR119 (setting [2]) came out at 44 nM.
The like results for `N#Cc1ccc(N2CCOc3c(NC4CCN(c5ncc(Cl)cn5)CC4)ncnc32)c(F)c1` [Compound 24, 4-(4-((1-(5-Chloropyrimidin-2-yl)piperidin-4-yl)amino)-6,7-dihydro-8H-pyrimido[5,4-b][1,4]oxazin-8-yl)-3-fluorobenzonitrile] were, in that order, 62.7% and 40 nM.
Taken in the same sequence, the figures for `CC(C)(C)OC(=O)N1CCN(C(=O)CN2CCC(Nc3ncnc4c3OCCN4c3ccc(C#N)cc3F)CC2)CC1` [Compound 25, tert-Butyl 4-(2-(4-((8-(4-cyano-2-fluorophenyl)-7,8-dihydro-6H-pyrimido[5,4-b][1,4]oxazin-4-yl)amino)piperidin-1-yl)acetyl)piperazine-1-carboxylate] were 100% and 90 nM.
On human GPR119, `CC(C)c1noc(N2CCC(COc3ccc(-c4ccc(S(C)(=O)=O)cc4)nc3)CC2)n1` [GSK-1292263, reference compound] gave an EC50 of 6.6 nM.
